Test results: US12285407B2, “Bis-indolylmethane derivatives and uses thereof” (The University of The West Indies, priority 2018, dated 2025)

Columns and labels:
Streptococcus pneumoniae [1] = assay: Checkerboard synergy (FICI) of antibiotics with SP-BIM; format: cell-based; conditions: for MIC antibiotic only: antibiotic alone
Klebsiella pneumoniae [2] = assay: Adjuvant broth microdilution (antibiotic MIC with SP-BIM at 50 μg/mL); format: cell-based; conditions: Klebsiella pneumoniae; antibiotic alone; Table 7
MRSA = assay: as above; format: cell-based, Staphylococcus aureus; conditions: antibiotic alone, Table 4
Bacillus cereus = assay: Checkerboard synergy (FICI) of antibiotics with SP-BIM; format: cell-based; conditions: for MIC antibiotic only: antibiotic alone
Klebsiella pneumoniae [3] = assay: as above; format: cell-based; conditions: for MIC antibiotic only: antibiotic alone
Escherichia coli [4] = assay: as above; design: MIC SP-BIM 13 only / MIC in combination: Antibiotic: unit not given beside the values; conditions: for MIC antibiotic only: antibiotic alone
Staphylococcus aureus = assay: as above; format: cell-based; conditions: Staphylococcus aureus; for MIC antibiotic only: antibiotic alone
Enterococcus faecium = assay: as above; format: cell-based; conditions: Enterococcus faecium; for MIC antibiotic only: antibiotic alone
Candida albicans = assay: as above; design: MIC SP-BIM 13 only / MIC in combination: Antibiotic / MIC antibiotic only: unit not given beside the values
Escherichia coli [5] = assay: microbe, parasite or virus in culture; format: cell-based; conditions: antibiotic alone, Table 6
Streptococcus pneumoniae [6] = assay: Adjuvant broth microdilution (antibiotic MIC with SP-BIM at 50 μg/mL); format: cell-based; conditions: Streptococcus pneumonia; antibiotic alone; Table 5
Enterococcus faecalis = assay: as above; format: cell-based; conditions: antibiotic alone
clinical strains of MRSA = assay: Kirby Bauer disc diffusion susceptibility profile; format: cell-based, Staphylococcus aureus; conditions: for Zone of clearance: 35° C., 24 hours, average n=3; for Interpretive standard (resistant/susceptible): zones vs EUCAST breakpoints (Table 30)
Escherichia coli O157:H7 = assay: Rescue concentrations of SP-BIM that reactivate antibiotic; format: cell-based
[7] = Streptococcus pneumonia (title: Streptococcus pyogenes), antibiotic + SP-BIM 9
[8] = Streptococcus pneumoniae, antibiotic + SP-BIM 13
[9] = SP-BIM 13 concentration in combination with the labelled antibiotic
[10] = SP-BIM 13 in combination with the labelled antibiotic
[11] = antibiotic in combination with SP-BIM 13
[12] = SP-BIM 9 concentration in combination with the labelled antibiotic
[13] = SP-BIM 9 in combination with the labelled antibiotic
[14] = antibiotic in combination with SP-BIM 9
[15] = MIC of the antibiotic in combination with SP-BIM 13

For CC1=C(C(=O)O)N2C(=O)[C@@H](NC(=O)[C@H](N)c3ccccc3)[C@H]2SC1 [Cephalexin, cefalexin], the “MIC in combination, SP-BIM 9” value (Streptococcus pneumoniae [1]; Streptococcus pneumonia (title: Streptococcus pyogenes), SP-BIM 9 concentration in combination with the labelled antibiotic) was 125 µg/mL, the “FIC of SP-BIM 9” value (Streptococcus pneumoniae [1]; Streptococcus pneumonia (title: Streptococcus pyogenes), SP-BIM 9 in combination with the labelled antibiotic) was 0.50 and the Interpretation (Streptococcus pneumoniae [1]; [7]) was “Additive (Additive: FICI>0.5-1.0)”. For the same compound, the “Σ FIC” value (Streptococcus pneumoniae [1]; [7]) was under 0.63, the MIC antibiotic only (Streptococcus pneumoniae [1]; Streptococcus pneumonia (title: Streptococcus pyogenes), SP-BIM 9 checkerboard) was 250 µg/mL and the “MIC in combination, Antibiotic” value (Streptococcus pneumoniae [1]; Streptococcus pneumonia (title: Streptococcus pyogenes), antibiotic in combination with SP-BIM 9) was 32 µg/mL. The FIC of antibiotic (Streptococcus pneumoniae [1]; Streptococcus pneumonia (title: Streptococcus pyogenes), in combination with SP-BIM 9) was 0.13, the “MIC in combination, SP-BIM 13” value (Streptococcus pneumoniae [1]; Streptococcus pneumoniae, SP-BIM 13 concentration in combination with the labelled antibiotic) was 63 µg/mL and the “FIC of SP-BIM 13” value (Streptococcus pneumoniae [1]; Streptococcus pneumoniae, SP-BIM 13 in combination with the labelled antibiotic) was 0.3. For the same compound, the Interpretation (Streptococcus pneumoniae [1]; [8]) was “Synergy (Synergy: FICI≤0.5)”, the “Σ FIC” value (Streptococcus pneumoniae [1]; [8]) was under 0.3 and the MIC antibiotic only (Streptococcus pneumoniae [1]; Streptococcus pneumoniae, SP-BIM 13 checkerboard) was 250 µg/mL. For the same compound, the “MIC in combination, Antibiotic” value (Streptococcus pneumoniae [1]; Streptococcus pneumoniae, antibiotic in combination with SP-BIM 13) was 2 µg/mL, the FIC of antibiotic (Streptococcus pneumoniae [1]; Streptococcus pneumoniae, in combination with SP-BIM 13) was 0.0 and the “MIC of antibiotic, No Compound” value (Klebsiella pneumoniae [2]) was 8 µg/mL. The “MIC of antibiotic, No Compound” value (MRSA) was 16 µg/mL, the “MIC in combination, SP-BIM 13” value (Bacillus cereus; [9]) was 32 µg/mL and the “FIC of SP-BIM 13” value (Bacillus cereus; [10]) was 0.1. For the same compound, the Interpretation (Bacillus cereus; antibiotic + SP-BIM 13) was “Synergy (Synergy: FICI≤0.5)”, the “Σ FIC” value (Bacillus cereus; antibiotic + SP-BIM 13) was under 0.1 and the MIC antibiotic only (Bacillus cereus; SP-BIM 9 checkerboard) was over 250 µg/mL. The MIC antibiotic only (Bacillus cereus; SP-BIM 13 checkerboard) was 250 µg/mL, the “MIC in combination, Antibiotic” value (Bacillus cereus; [11]) was 4 µg/mL and the FIC of antibiotic (Bacillus cereus; in combination with SP-BIM 13) was 0.02. For the same compound, the “MIC in combination, SP-BIM 9” value (Klebsiella pneumoniae [3]; [12]) was 125 µg/mL, the “FIC of SP-BIM 9” value (Klebsiella pneumoniae [3]; [13]) was 0.5 and the “MIC in combination, SP-BIM 13” value (Klebsiella pneumoniae [3]; [9]) was 63 µg/mL. The “FIC of SP-BIM 13” value (Klebsiella pneumoniae [3]; [10]) was 0.3, the Interpretation (Klebsiella pneumoniae [3]; antibiotic + SP-BIM 9) was “Synergy (Synergy: FICI≤0.5)” and the “Σ FIC” value (Klebsiella pneumoniae [3]; antibiotic + SP-BIM 9) was under 0.5. The Interpretation (Klebsiella pneumoniae [3]; antibiotic + SP-BIM 13) was “Synergy (Synergy: FICI≤0.5)”, the “Σ FIC” value (Klebsiella pneumoniae [3]; antibiotic + SP-BIM 13) was under 0.5 and the MIC antibiotic only (Klebsiella pneumoniae [3]; SP-BIM 9 checkerboard) was 250 µg/mL. For the same compound, the MIC antibiotic only (Klebsiella pneumoniae [3]; SP-BIM 13 checkerboard) was 250 µg/mL, the “MIC in combination, Antibiotic” value (Klebsiella pneumoniae [3]; [14]) was 4 µg/mL and the “MIC in combination, Antibiotic” value (Klebsiella pneumoniae [3]; [11]) was 63 µg/mL. For the same compound, the FIC of antibiotic (Klebsiella pneumoniae [3]; in combination with SP-BIM 9) was 0.016, the FIC of antibiotic (Klebsiella pneumoniae [3]; in combination with SP-BIM 13) was 0.3 and the “MIC in combination: Antibiotic” value (Escherichia coli [4]; [15]) was 125. For the same compound, the “MIC in combination, SP-BIM 9” value (Escherichia coli [4]; [12]) was 125 µg/mL, the “FIC of SP-BIM 9” value (Escherichia coli [4]; [13]) was 0.5 and the “FIC of SP-BIM 13” value (Escherichia coli [4]; [10]) was 0.3. The Interpretation (Escherichia coli [4]; antibiotic + SP-BIM 9) was “Synergy (Synergy: FICI≤0.5)”, the “Σ FIC” value (Escherichia coli [4]; antibiotic + SP-BIM 9) was under 0.6 and the Interpretation (Escherichia coli [4]; antibiotic + SP-BIM 13) was “Additive (Additive: FICI>0.5-1.0)”. For the same compound, the “Σ FIC” value (Escherichia coli [4]; antibiotic + SP-BIM 13) was under 0.8, the MIC antibiotic only (Escherichia coli [4]) was over 250 and the MIC antibiotic only (Escherichia coli [4]; SP-BIM 9 checkerboard) was 250 µg/mL. For the same compound, the “MIC in combination, Antibiotic” value (Escherichia coli [4]; [14]) was 16 µg/mL, the FIC of antibiotic (Escherichia coli [4]; combination with SP-BIM 13) was 0.5 and the FIC of antibiotic (Escherichia coli [4]; in combination with SP-BIM 9) was 0.064. The “MIC in combination, SP-BIM 9” value (Staphylococcus aureus; [12]) was 16.0 µg/mL, the “FIC of SP-BIM 9” value (Staphylococcus aureus; [13]) was 0.06 and the “MIC in combination, SP-BIM 13” value (Staphylococcus aureus; [9]) was 63 µg/mL. The “FIC of SP-BIM 13” value (Staphylococcus aureus; [10]) was 0.5, the Interpretation (Staphylococcus aureus; antibiotic + SP-BIM 9) was “Synergy (Synergy: FICI≤0.5)” and the “Σ FIC” value (Staphylococcus aureus; antibiotic + SP-BIM 9) was under 0.19. For the same compound, the Interpretation (Staphylococcus aureus; antibiotic + SP-BIM 13) was “Additive (Additive: FICI>0.5-1.0)”, the “Σ FIC” value (Staphylococcus aureus; antibiotic + SP-BIM 13) was 0.6 and the MIC antibiotic only (Staphylococcus aureus; SP-BIM 9 checkerboard) was 4 µg/mL. For the same compound, the MIC antibiotic only (Staphylococcus aureus; SP-BIM 13 checkerboard) was 4 µg/mL, the “MIC in combination, Antibiotic” value (Staphylococcus aureus; [14]) was 0.5 µg/mL and the “MIC in combination, Antibiotic” value (Staphylococcus aureus; [11]) was 0.5 µg/mL. The FIC of antibiotic (Staphylococcus aureus; in combination with SP-BIM 9) was 0.13, the FIC of antibiotic (Staphylococcus aureus; in combination with SP-BIM 13) was 0.1 and the “MIC in combination, SP-BIM 13” value (Enterococcus faecium; [9]) was 63 µg/mL. For the same compound, the “FIC of SP-BIM 13” value (Enterococcus faecium; [10]) was 0.5, the Interpretation (Enterococcus faecium; antibiotic + SP-BIM 13) was “Synergy (Synergy: FICI≤0.5)” and the “Σ FIC” value (Enterococcus faecium; antibiotic + SP-BIM 13) was 0.5. The MIC antibiotic only (Enterococcus faecium; SP-BIM 9 checkerboard) was 250 µg/mL, the MIC antibiotic only (Enterococcus faecium; SP-BIM 13 checkerboard) was 250 µg/mL and the “MIC in combination, Antibiotic” value (Enterococcus faecium; [11]) was 8 µg/mL. For the same compound, the FIC of antibiotic (Enterococcus faecium; in combination with SP-BIM 13) was 0.0, the “MIC in combination: Antibiotic” value (Candida albicans; [15]) was 63 and the “FIC of SP-BIM 13” value (Candida albicans; [10]) was 0.5. For the same compound, the Interpretation (Candida albicans; antibiotic + SP-BIM 13) was “Additive (Additive: FICI>0.5-1.0)”, the “Σ FIC” value (Candida albicans; antibiotic + SP-BIM 13) was under 0.8 and the MIC antibiotic only (Candida albicans; antibiotic alone) was over 250. The FIC of antibiotic (Candida albicans; combination with SP-BIM 13) was 0.3, the “MIC of antibiotic, No Compound” value (Escherichia coli [5]) was over 250 µg/mL and the “MIC of antibiotic, No Compound” value (Streptococcus pneumoniae [6]) was 250 µg/mL.
For NC[C@H]1O[C@H](O[C@H]2[C@H](O)[C@@H](O[C@H]3O[C@H](CO)[C@@H](O)[C@H](N)[C@H]3O)[C@H](N)C[C@@H]2N)[C@H](O)[C@@H](O)[C@@H]1O [Kanamycin, kanamycin], the “MIC of antibiotic, No Compound” value (Enterococcus faecalis) was 250 µg/mL, the Zone of clearance (clinical strains of MRSA; MRSA strain 1594) was 11.5 mm and the “Interpretive standard (resistant/susceptible)” value (clinical strains of MRSA; MRSA strain 1594) was “R”. The Zone of clearance (clinical strains of MRSA; MRSA strain 1621) was 19.5 mm, the “Interpretive standard (resistant/susceptible)” value (clinical strains of MRSA; MRSA strain 1621) was “S” and the Zone of clearance (clinical strains of MRSA; MRSA strain 5455) was 19.5 mm. For the same compound, the “Interpretive standard (resistant/susceptible)” value (clinical strains of MRSA; MRSA strain 5455) was “S”, the Zone of clearance (clinical strains of MRSA; MRSA strain 5872) was 0.0 mm and the “Interpretive standard (resistant/susceptible)” value (clinical strains of MRSA; MRSA strain 5872) was “R”. For the same compound, the Zone of clearance (clinical strains of MRSA; MRSA strain 7153) was 19.5 mm, the “Interpretive standard (resistant/susceptible)” value (clinical strains of MRSA; MRSA strain 7153) was “S” and the Zone of clearance (clinical strains of MRSA; MRSA strain 7172) was 20.5 mm. The “Interpretive standard (resistant/susceptible)” value (clinical strains of MRSA; MRSA strain 7172) was “S”, the Zone of clearance (clinical strains of MRSA; MRSA strain 7698) was 8.5 mm and the “Interpretive standard (resistant/susceptible)” value (clinical strains of MRSA; MRSA strain 7698) was “R”. For the same compound, the Zone of clearance (clinical strains of MRSA; MRSA strain 10132) was 8.0 mm, the “Interpretive standard (resistant/susceptible)” value (clinical strains of MRSA; MRSA strain 10132) was “R” and the “MIC of Kanamycin in combination with 32 μg/mL SP-BIM 28” value (Escherichia coli O157:H7; E. coli O157:H7, with 32 μg/mL SP-BIM 28) was 1 µg/mL. The MIC (Escherichia coli O157:H7; Escherichia coli, read-out: MIC of Kanamycin) was 8 µg/mL.
